# Assay results: patent US20060167086A1, “Medicinal composition” (priority 2003, published 2006)
# Assays:
# [1] = tested on: hypertrophic fat cells (from precursor fat cell line 3T3-L1); experiment: Apoptosis induction (TUNEL) in hypertrophic fat cells; type: cell-based
# Procedure: It is considered that diseases involving insulin resistance result from TNF-α secreted from hypertrophic fat cells, as mentioned above. Thus, to examine whether (−)-DHM2EQ can induce apoptosis of hypertrophic fat cells, the influence of (−)-DHM2EQ on the hypertrophic fat cells obtained by inducing differentiation of precursor fat cells in long-term culture was investigated. The precursor fat cell line 3T3-L1 (7.5×10^4 cells; 1 ml of DMEM+10% FBS) was plated on coverslips in 12-well plates. A few days after the cells reached confluency, the cell medium was changed to a medium containing 500 μM of 3-isobutyl-1-methylxanthine (IBMX), 1 μM of dexamethasone (Dex), and a medium containing 1 μg/ml of insulin. After culture for 3 days, this medium was changed to a media containing 1 μg/ml insulin, which was cultured for another 3 days, followed by replacement with a normal medium (DMEM containing 10% FBS). Thereafter, medium change was performed every three days continuously till day 50.
# On day 50 after differentiation induction, medium change was performed. […] After another 24 h, the medium was removed and hypertrophy fat cells were washed 3 times with 500 μl of PBS (8 g/l NaCl, 0.45 g/l NaH2PO4.2H2O, 1.28 g/l Na2HPO4) for fluorescent antibodies and fixed for 15 min at 4° C. in 500 μl of 4% paraformaldehyde. Subsequently, cells were washed three times with 500 μl of PBS for fluorescent antibodies and treated for 15 min with 0.2% BSA and 0.5% Tween-20 in PBS for fluorescent antibodies.
# Subsequently, the coverslips were washed three times with 500 μl of distilled water and then mounted on the paraffin sheet in 150-mm^2 shielded Petri dishes, cells facing upward. TUNEL solution (TdT buffer II/FITC-dUTP/TdT=45 μl/2.5 μl/2.5 μl) was dropped in 45-μl drops onto the coverslips, followed by incubation for 1 h at 37° C. Finally, the coverslips were returned to shielded 12-well plates and washed three times with 1 ml of PBS for fluorescent antibodies. Then the coverslips were removed, mounted on a slide in 50% glycerol, and observed under a fluorescence microscope.
# C2C12 myoblast cell line = experiment: Relief of TNF-α inhibition of differentiation from myoblasts to muscle cells; type: cell-based, mouse; conditions: 6 days
# Procedure: Thus, the inventors investigated whether addition of (−)-DHM2EQ can relieve the inhibitory responses to muscle differentiation by TNF-α, using a differentiation induction system of the C2C12 myoblast cell line. Using DMEM (culture medium) containing 10% FBS a mouse skeletal myogenic cell line, C2C12 (purchased from the RIKEN cell bank) was prepared at 7.5×10^4 cells/ml. Cells were seeded in plastic 12-well plates on coverslips (1 ml/well; Matsunami Glass Ind., Ltd., Osaka, Japan). Subsequently, when cells had grown to confluence, the medium was changed to DMEM (differentiation medium) containing 0.5% heat-inactivated horse serum. Cells to be subjected to the effect of TNF-α (1 ng/ml) and/or (−)-DHMEQ (3 μg/(ml)) were supplemented with each agent at this point. After 6 days, on confirmation of the formation of multinucleated myotubes, a marker of muscle cell differentiation, the medium was removed. The control was prepared by culturing cells in a culture medium at a density such that confluency was reached exactly on day 6.
# These cells were washed twice with PBS^− (Ca^2+, Mg^2+-free PBS; 8.0 g/l NaCl, 0.2 g/l KCl, 2.3 g/l NaHPO4.12H2O, 0.2 g/l KH2PO4). […]
# Samples thus prepared were mounted on a slide and photographed at 400× magnification with a fluorescence microscope (Nikon UFX-DX; set with a 40× phase contrast objective, Ph2). […]
# [2] = tested on: multiple myeloma cells line KMS-12-PE; experiment: Antitumor effect in myeloma model mice; type: in vivo, CB17/lcr-SCID mice; conditions: 8 mg/kg BW intraperitoneally every day for 14 days; FIG. 5
# Procedure: Next, the antitumor effect of (−)-DHM2EQ on multiple myeloma was investigated. The multiple myeloma cells line KMS-12-PE (Ohtsuki T. et al., Br. J. Hematol. 73, 199-204, 1989) (4×10^7 cells) was dissolved in 0.2 ml of PBS and injected subcutaneously into the left back of CB17/lcr-SCID mice to form tumors. Pieces of these tumors (5 mm^3) were implanted in 10 mice. […] Subsequently, a solution of (−)-DHM2EQ (RPMI1640 medium) was administered intraperitoneally to 5 mice at 8 mg/kg BW every day for 14 days ((−)-DHM2EQ). Another five mice in the control group were given an equal amount of solvent (Control). The diameters of tumors were measured twice a week (Tumor volume=(minor axis)^2×(major axis)×0.52).
# [3] = tested on: Undifferentiated human thyroid cancer cell FRO; experiment: Antitumor effect in thyroid cancer model mice; type: in vivo, BALB/cnu/nu male mice; conditions: 10 mg/kg BW intraperitoneally every day for 10 days; FIG. 6
# Procedure: The antitumor effect of (−)-DHM2EQ on human thyroid cancer was investigated. Undifferentiated human thyroid cancer cell suspension FRO (5×10^6 cells; 1200 μl of RPMI-1640) was injected subcutaneously into the flank of 8-week-old BALB/cnu/nu male mice (Charles River, Japan). Subsequently, tumor sizes were measured with calipers every other day, and tumor volume was calculated by formula (a; minor axis of tumor)^2×(b: perpendicular diameter to a)×0.4).
# [4] = Body weight under high fat diet in obese type 2 diabetes model; type: in vivo; conditions: supplemented to high fat diet, 4 weeks, KKA^y female mice; FIG. 8
# Procedure: Four-week-old KKA^y female mice were divided into two groups: the (−)-DHM2EQ group (n=5) and the control group (n 4). A high fat diet (CRF-1; Oriental Yeast Co.) as a basal chow diet was fed ad libitum for 4 weeks to the non-supplemented group (∘: without (−)-DHM2EQ) and the (−)-DHM2EQ-administered group (●: with (−)-DHM2EQ). Body weights of animals were measured weekly. The (−)-DHM2EQ given to mice was ground to fine powder in a mortar, suspended or dissolved in a 5% CMC solution, and supplemented to the high fat diet.
# NF-κB [5] = experiment: Inhibition of NF-κB activity; type: cell-based
# [6] = Type II collagen-induced rheumatoid arthritis model mice; type: in vivo; conditions: administration to model mice of type II collagen-induced rheumatoid arthritis
# [7] = tested on: Hodgkin's-lymphoma cells in which NF-κB is activated; experiment: Proliferation of Hodgkin's-lymphoma cells; type: cell-based
# [8] = tested on: myelocytic leukemia cells in which NF-κB is not activated; experiment: Proliferation of myelocytic leukemia cells; type: cell-based
# [9] = tested on: human breast cancer cells; experiment: Proliferation of human breast cancer cells in vitro and in vivo; type: cell-based; conditions: in a manner not depending on apoptosis
# [10] = tested on: leukemia cells in which NF-κB is activated; experiment: Apoptosis of leukemia cells; type: cell-based
# human normal leukocytes = experiment: Apoptosis of human normal leukocytes; type: cell-based; conditions: same concentration as that used in inducing apoptosis of leukemia cells
# NF-κB [11] = experiment: NF-κB activation in ATL cells; type: cell-based
# [12] = tested on: adult T cell leukemia/lymphoma (ATL) cells; experiment: Proliferation of ATL cells; type: cell-based
# normal cells [13] = experiment: Proliferation of normal cells; type: cell-based
# [14] = tested on: adult T cell leukemia/lymphoma (ATL) cells; experiment: Apoptosis of ATL cells; type: cell-based
# normal cells [15] = experiment: Apoptosis of normal cells; type: cell-based
# [16] = Model mice with induced cachexic symptoms; type: in vivo; conditions: administered to model mice with induced cachexic symptoms
# [17] = Combination with oncotherapy that activates NF-κB; conditions: used in combination
# NF-κB [18] = conditions: J. Biol. Chem. 277, 24625-24630, 2002; cited from earlier work
# [19] = Bioorg. Med. Chem. Lett. 10, 865-869, 2000; cited from earlier work
# prostatic cancer = conditions: Cancer Res. 2003; 63(1):107-10; cited from earlier work
# breast cancer = conditions: Annual Meeting of the Japanese Cancer Association, 2002; cited from earlier work
# [20] = background statement; cited from earlier work
compound,measurement,setting,value
TNF-α [reference compound],apoptosis of hypertrophic fat cells,[1]; 10 ng/ml TNF-α alone,did not induce apoptosis
same,differentiation induction from myoblasts to muscle cells,C2C12 myoblast cell line; 1 ng/ml TNF-α,suppressed differentiation induction
O=C(NC1=CC(=O)[C@H]2O[C@H]2[C@H]1O)c1ccccc1O [(−)-DHM2EQ],tumor growth (tumor volume) compared with the control,[2],significantly suppresses tumor growth
same,tumor growth (tumor volume) compared with the control,[3],significantly inhibits tumor growth
same,apoptosis of hypertrophic fat cells,"[1]; 10 μg/ml (−)-DHM2EQ alone, without TNF-α",did not induce apoptosis
same,apoptosis of hypertrophic fat cells,"[1]; pretreated with 10 mg/ml (−)-DHM2EQ, then stimulation with 10 ng/ml TNF-α, TUNEL, FIG. 7",induces apoptosis
same,body weight under high fat diet load,[4],suppression of body weight
same,inhibition by TNF-α of differentiation induction from myoblasts to muscle cells,"C2C12 myoblast cell line; 1 to 3 μg/ml (−)-DHM2EQ with 1 ng/ml TNF-α, FIG. 9",relieves the inhibition of the differentiation induction
same,inhibitory effect on the NF-kappa B activity relative to (±)-DHM2EQ,NF-κB [5],several to ten or more times stronger
"O=C(NC1=CC(=O)C2OC2C1O)c1ccccc1O (racemic) [(±)-DHM2EQ, 5,6-epoxy-4-hydroxy-3-salicyloylamino-2-cyclohexenone]",arthritic symptoms,[6],efficacy of (±)-DHM2EQ in suppression of arthritic symptoms
same,proliferation of Hodgkin's-lymphoma cells,[7],inhibits proliferation
same,proliferation of myelocytic leukemia cells,[8],does not inhibit proliferation
same,proliferation of human breast cancer cells,[9],suppresses proliferation
same,apoptosis of leukemia cells,[10],induces apoptosis
same,apoptosis of human normal leukocytes,human normal leukocytes,does not in the least induce apoptosis
same,NF-κB activation in ATL cells,NF-κB [11],inhibits NF-κB activation
same,proliferation of ATL cells,[12],specifically capable of inhibiting proliferation
same,proliferation of normal cells,normal cells [13],does not inhibit proliferation
same,apoptosis of ATL cells,[14],capable of inducing apoptosis
same,apoptosis of normal cells,normal cells [15],does not induce apoptosis
same,cachexic symptoms,[16],efficacy of (±)-DHM2EQ in prevention/improvement of cachexic symptoms
same,"effect of oncotherapy that activates NF-κB (chemotherapy, radiotherapy)",[17],enhances the effect
same,NF-κB inhibition on a cellular level,NF-κB [18],inhibits NF-κB strongly
same,symptoms in a model mouse of rheumatism,[19],suppresses symptoms
same,growth of prostatic cancer on an organism level,prostatic cancer,strongly suppresses the growth
same,growth of breast cancer on an organism level,breast cancer,strongly suppresses the growth
same,toxicity,[20],low toxicity
